Experimental data published in patent US8193208B2 (Purdue Pharma L.P., priority 2005, dated 2012).
pIC50: −log10 of the molar value.

Assays:
Assay type in all cases: cell-based
[1] = target: T1, N-type calcium channel (NTCC) (Homo sapiens, UniProt Q00975); assay: FLIPR calcium mobilization assay for N-type calcium channel (differentiated IMR32 cells); design: differentiated IMR32 cells were treated with 1×; endogenous in cells; host or cells: IMR32 cells (ATCC), differentiated 8 days with dibutyryl cAMP and bromodeoxyuridine; details: calcium mobilization in vitro assay; N-type calcium channel block
Method: Cell maintenance and differentiation. Unless noted otherwise, cell culture reagents were purchased from Mediatech of Herndon, Md. IMR32 cells (American Type Culture Collection, ATCC, Manassas, Va.) were routinely cultured in growth medium consisting of minimum essential medium containing 10% fetal bovine serum (FBS, Hyclone, Logan, Utah), 100 U/mL penicillin, 100 μg/mL streptomycin, 2 mM L-glutamine, 1 mM sodium pyruvate, and 1×MEM non-essential amino acids. 80-90% confluent flasks of cells were differentiated using the following differentiation medium: Growth medium plus 1 mM dibutyryl cyclic AMP (Sigma, St. Louis, Mo.), and 2.5 μM bromodeoxyuridine (Sigma). […]
CellStripper, and seeded on poly-D-lysine-coated 96-well clear-bottom black plates (Becton Dickinson, Franklin Lakes, N.J.) at 200,000 cells/well. […] Plates were then transferred to a Fluorimetric Imaging Plate Reader (FLIPR^96, Molecular Devices, Inc., Sunnyvale, Calif.) for assay. The FLIPR measured basal Fluo-4 fluorescence for 315 seconds (i.e., 5 minutes and 15 seconds), then added 0.1 mL KCl agonist dissolved in IMR32 buffer and measured fluorescence for another 45 seconds. Final test compound concentrations on the cells after FLIPR read ranged from about 846 pM to about 17 μM, final nitrendipine concentration was 5 μM, and final KCl concentration was 90 mM. […]

[2] = target: T1, N-type calcium channel (NTCC); assay: as above; design: endogenous in cells; host or cells: IMR32 cells (ATCC), differentiated 8 days with dibutyryl cAMP and bromodeoxyuridine; details: calcium mobilization in vitro assay; N-type calcium channel block
Method: Cell maintenance and differentiation. Unless noted otherwise, cell culture reagents were purchased from Mediatech of Herndon, Md. IMR32 cells (American Type Culture Collection, ATCC, Manassas, Va.) were routinely cultured in growth medium consisting of minimum essential medium containing 10% fetal bovine serum (FBS, Hyclone, Logan, Utah), 100 U/mL penicillin, 100 μg/mL streptomycin, 2 mM L-glutamine, 1 mM sodium pyruvate, and 1×MEM non-essential amino acids. 80-90% confluent flasks of cells were differentiated using the following differentiation medium: Growth medium plus 1 mM dibutyryl cyclic AMP (Sigma, St. Louis, Mo.), and 2.5 μM bromodeoxyuridine (Sigma). Cells were differentiated for 8 days by replacing differentiation medium every 2-3 days.
FLIPR Calcium Mobilization Assay for N-type Calcium Channel. One day prior to performing this assay, differentiated IMR32 cells were treated with 1×
CellStripper, and seeded on poly-D-lysine-coated 96-well clear-bottom black plates (Becton Dickinson, Franklin Lakes, N.J.) at 200,000 cells/well. On the day of the assay, the cell plates were washed with IMR32 buffer (127 mM NaCl, 1 mM KCl, 2 mM MgCl2, 700 μM NaH2PO4, 5 mM CaCl2, 5 mM NaHCO3, 8 mM HEPES, 10 mM glucose, pH 7.4), then pre-stimulated with KCl and loaded as follows: 0.05 mL of IMR32 buffer, 0.05 mL of each compound tested diluted in IMR32 buffer containing 20 μM nitrendipine (Sigma), and 0.1 mL KCl dissolved in IMR32 buffer, plus Fluo-4 were added (3 μM final concentration, Molecular Probes, Eugene, Oreg.). Final test compound concentrations ranged from about 846 pM to about 17 μM, final nitrendipine concentration was 5 μM, and final KCl concentration was 90 mM. After 1 hour, the cells were washed twice with 0.05 mL of each compound tested in nitrendipine-containing IMR32 buffer (no KCl or Fluo-4), and then replaced with 0.1 mL of each compound tested in nitrendipine-containing IMR32 buffer. Plates were then transferred to a Fluorimetric Imaging Plate Reader (FLIPR^96, Molecular Devices, Inc., Sunnyvale, Calif.) for assay. The FLIPR measured basal Fluo-4 fluorescence for 315 seconds (i.e., 5 minutes and 15 seconds), then added 0.1 mL KCl agonist dissolved in IMR32 buffer and measured fluorescence for another 45 seconds. Final test compound concentrations on the cells after FLIPR read ranged from about 846 pM to about 17 μM, final nitrendipine concentration was 5 μM, and final KCl concentration was 90 mM. Data were collected over the entire time course and analyzed using Excel, Graph Pad Prism (version 3.02, Graph Pad, San Diego, Calif.), or an in-house non-linear regression analysis software.

[3] = target: T2, L-type calcium channel (LTCC) (Rattus norvegicus, UniProt P22002); assay: FLIPR calcium mobilization assay for L-type calcium channel (HEK293 cells expressing recombinant rat LTCC subunits, or alternatively differentiated A7r5 cells); details: calcium mobilization in vitro assay; L-type calcium channel block
T2 construct: The 6.5 kb cDNA encoding the L-type calcium channel α1c subunit was cloned by PCR amplification from rat heart cDNA; expressed in transfected cells; host or cells: HEK293 (ATCC), stably transfected
Method: A7r5 (ATCC) cells were maintained and routinely cultured in A7r5 growth medium consisting of Dulbecco's Modified Eagles Medium containing 10% FBS, 100 U/mL penicillin, 100 μg/mL streptomycin, 4 mM L-glutamine, and 0.15% sodium bicarbonate. 80-90% confluent flasks of cells were differentiated using the following differentiation medium: A7r5 Growth Medium plus 1 mM dibutyryl cyclic AMP (Sigma). Cells were differentiated for 8 days by replacing differentiation medium every 2-3 days.
FLIPR Calcium Mobilization Assay for L-type Calcium Channel. One day prior to performing this assay, HEK293 cells stably expressing recombinant rat L-type calcium channel (LTCC) subunits (α1c, α2δ, and β1) are trypsinized, then seeded on poly-D-lysine-coated 96-well clear-bottom black plates (Becton Dickinson, Franklin Lakes, N.J.) at 75,000 cells/well. On the day of the assay, the plates are washed with LTCC wash buffer (127 mM NaCl, 2 mM MgCl2, 700 μM NaH2PO4, 5 mM CaCl2, 5 mM NaHCO3, 8 mM HEPES, 10 mM glucose, pH 7.4), then loaded with 0.1 mL of LTCC wash buffer containing Fluo-4 (3 μM final concentration, Molecular Probes, Eugene, Oreg.). After 1 hour, the cells are washed with 0.1 mL LTCC wash buffer and resuspended in 0.05 mL LTCC assay buffer (same composition as LTCC wash buffer). Plates are then transferred to a FLIPR^96 for assay. The FLIPR measures basal Fluo-4 fluorescence for 15 seconds, then adds 0.05 mL of each compound tested diluted in LTCC assay buffer at final concentrations ranging from about 846 pM to about 17 μM. Fluo-4 fluorescence is then measured for 5 minutes. 0.1 mL KCl agonist dissolved in LTCC assay buffer is then added to the cells to produce a final concentration of 90 mM KCl, and fluorescence is measured for another 45 seconds. Data are collected over the entire time course and analyzed using Excel, Graph Pad Prism, or an in-house regression analysis software.
Alternative FLIPR Calcium Mobilization Assay for L-type Calcium Channel. Alternatively, the following cell line and procedure was used for the FLIPR calcium mobilization assay for L-type calcium channel. One day prior to performing this assay, differentiated A7r5 cells were trypsinized, then seeded on tissue culture treated 96-well clear-bottom black plates (Becton Dickinson, Franklin Lakes, N.J.) at a dilution of 1:1 from a confluent T150 cm^2 flask. On the day of the assay, the plates were washed with A7r5 wash buffer (127 mM NaCl, 2 mM MgCl2, 700 μM NaH2PO4, 5 mM CaCl2, 5 mM NaHCO3, 8 mM HEPES, 10 mM glucose, pH 7.4), then loaded with 0.1 mL of A7r5 wash buffer containing Fluo-4 (3 μM final concentration, Molecular Probes, Eugene, Oreg.). After 1 hour, the cells were washed with 0.1 mL A7r5 wash buffer and resuspended in 0.05 mL A7r5 assay buffer that was composed of A7r5 wash buffer plus 50 μM valinomycin (Sigma). Plates were then transferred to a FLIPR^96 for assay. The FLIPR measured basal Fluo-4 fluorescence for 15 seconds, then added 0.05 mL of each compound tested diluted in A7r5 assay buffer at final concentrations ranging from about 846 pM to about 17 μM. Fluo-4 fluorescence was then measured for 5 minutes. 0.1 mL KCl agonist dissolved in A7r5 assay buffer is then added to the cells to produce a final concentration of 90 mM KCl, and fluorescence was measured for another 45 seconds. Data were collected over the entire time course and analyzed using Excel, Graph Pad Prism, or an in-house regression analysis software.

T1 sequence (Q00975 whole entry): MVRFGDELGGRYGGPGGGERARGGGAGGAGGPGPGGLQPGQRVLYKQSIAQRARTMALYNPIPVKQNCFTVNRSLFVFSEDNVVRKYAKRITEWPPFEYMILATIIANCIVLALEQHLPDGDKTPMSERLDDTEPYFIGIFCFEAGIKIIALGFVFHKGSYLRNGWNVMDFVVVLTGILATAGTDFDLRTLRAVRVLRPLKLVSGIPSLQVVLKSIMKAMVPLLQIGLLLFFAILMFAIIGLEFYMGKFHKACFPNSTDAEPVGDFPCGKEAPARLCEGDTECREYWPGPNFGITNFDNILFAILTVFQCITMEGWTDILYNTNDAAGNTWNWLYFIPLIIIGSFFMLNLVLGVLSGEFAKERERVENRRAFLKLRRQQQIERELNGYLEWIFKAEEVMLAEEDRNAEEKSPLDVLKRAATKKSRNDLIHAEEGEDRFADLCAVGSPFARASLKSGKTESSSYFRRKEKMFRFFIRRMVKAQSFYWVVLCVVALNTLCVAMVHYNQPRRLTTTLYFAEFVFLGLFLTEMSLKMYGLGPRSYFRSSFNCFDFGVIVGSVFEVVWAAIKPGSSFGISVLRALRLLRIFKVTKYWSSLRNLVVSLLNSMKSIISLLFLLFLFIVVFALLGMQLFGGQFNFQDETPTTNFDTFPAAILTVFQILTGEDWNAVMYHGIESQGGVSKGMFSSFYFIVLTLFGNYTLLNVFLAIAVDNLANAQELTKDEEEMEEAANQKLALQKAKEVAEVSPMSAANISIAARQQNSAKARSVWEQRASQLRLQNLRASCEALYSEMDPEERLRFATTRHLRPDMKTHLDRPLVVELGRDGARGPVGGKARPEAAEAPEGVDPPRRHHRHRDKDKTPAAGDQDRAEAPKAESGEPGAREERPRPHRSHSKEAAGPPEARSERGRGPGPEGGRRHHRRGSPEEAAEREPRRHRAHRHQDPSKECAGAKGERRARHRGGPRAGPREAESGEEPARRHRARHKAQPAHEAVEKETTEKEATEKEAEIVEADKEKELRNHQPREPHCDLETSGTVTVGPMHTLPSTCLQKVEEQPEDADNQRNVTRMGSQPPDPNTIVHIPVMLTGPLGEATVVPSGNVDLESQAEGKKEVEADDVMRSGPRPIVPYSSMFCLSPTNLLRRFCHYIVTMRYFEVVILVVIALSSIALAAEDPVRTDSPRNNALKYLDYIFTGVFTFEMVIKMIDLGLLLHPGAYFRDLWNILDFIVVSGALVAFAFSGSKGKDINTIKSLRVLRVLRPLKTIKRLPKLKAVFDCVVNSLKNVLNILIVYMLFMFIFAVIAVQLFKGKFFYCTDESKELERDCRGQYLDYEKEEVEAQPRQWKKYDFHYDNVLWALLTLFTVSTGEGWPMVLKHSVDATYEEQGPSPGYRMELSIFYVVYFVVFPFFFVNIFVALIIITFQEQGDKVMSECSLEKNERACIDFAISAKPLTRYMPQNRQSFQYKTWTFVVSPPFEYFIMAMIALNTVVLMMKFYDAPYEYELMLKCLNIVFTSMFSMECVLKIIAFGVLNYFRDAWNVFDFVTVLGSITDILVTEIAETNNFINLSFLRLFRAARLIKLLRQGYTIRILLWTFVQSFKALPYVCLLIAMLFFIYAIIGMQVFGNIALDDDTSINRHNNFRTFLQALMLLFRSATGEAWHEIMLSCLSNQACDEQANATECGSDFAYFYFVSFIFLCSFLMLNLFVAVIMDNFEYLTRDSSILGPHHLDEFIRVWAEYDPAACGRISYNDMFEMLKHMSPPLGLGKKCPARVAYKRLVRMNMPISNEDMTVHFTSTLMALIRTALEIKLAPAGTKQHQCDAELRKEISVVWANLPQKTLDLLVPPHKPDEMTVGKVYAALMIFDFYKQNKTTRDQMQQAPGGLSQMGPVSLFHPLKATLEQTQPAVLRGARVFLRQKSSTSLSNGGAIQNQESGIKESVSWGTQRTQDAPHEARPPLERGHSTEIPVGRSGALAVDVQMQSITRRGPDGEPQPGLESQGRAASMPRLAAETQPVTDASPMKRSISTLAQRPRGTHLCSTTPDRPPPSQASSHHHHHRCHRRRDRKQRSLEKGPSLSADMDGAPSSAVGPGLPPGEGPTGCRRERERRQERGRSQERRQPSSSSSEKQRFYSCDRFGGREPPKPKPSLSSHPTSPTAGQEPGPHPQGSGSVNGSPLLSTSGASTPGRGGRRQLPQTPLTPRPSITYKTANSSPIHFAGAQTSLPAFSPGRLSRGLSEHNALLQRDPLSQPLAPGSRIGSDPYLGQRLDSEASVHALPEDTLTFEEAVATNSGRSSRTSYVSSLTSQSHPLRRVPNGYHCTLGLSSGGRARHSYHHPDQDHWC
T1 sequence (P54289 25-956 partner limits assumed): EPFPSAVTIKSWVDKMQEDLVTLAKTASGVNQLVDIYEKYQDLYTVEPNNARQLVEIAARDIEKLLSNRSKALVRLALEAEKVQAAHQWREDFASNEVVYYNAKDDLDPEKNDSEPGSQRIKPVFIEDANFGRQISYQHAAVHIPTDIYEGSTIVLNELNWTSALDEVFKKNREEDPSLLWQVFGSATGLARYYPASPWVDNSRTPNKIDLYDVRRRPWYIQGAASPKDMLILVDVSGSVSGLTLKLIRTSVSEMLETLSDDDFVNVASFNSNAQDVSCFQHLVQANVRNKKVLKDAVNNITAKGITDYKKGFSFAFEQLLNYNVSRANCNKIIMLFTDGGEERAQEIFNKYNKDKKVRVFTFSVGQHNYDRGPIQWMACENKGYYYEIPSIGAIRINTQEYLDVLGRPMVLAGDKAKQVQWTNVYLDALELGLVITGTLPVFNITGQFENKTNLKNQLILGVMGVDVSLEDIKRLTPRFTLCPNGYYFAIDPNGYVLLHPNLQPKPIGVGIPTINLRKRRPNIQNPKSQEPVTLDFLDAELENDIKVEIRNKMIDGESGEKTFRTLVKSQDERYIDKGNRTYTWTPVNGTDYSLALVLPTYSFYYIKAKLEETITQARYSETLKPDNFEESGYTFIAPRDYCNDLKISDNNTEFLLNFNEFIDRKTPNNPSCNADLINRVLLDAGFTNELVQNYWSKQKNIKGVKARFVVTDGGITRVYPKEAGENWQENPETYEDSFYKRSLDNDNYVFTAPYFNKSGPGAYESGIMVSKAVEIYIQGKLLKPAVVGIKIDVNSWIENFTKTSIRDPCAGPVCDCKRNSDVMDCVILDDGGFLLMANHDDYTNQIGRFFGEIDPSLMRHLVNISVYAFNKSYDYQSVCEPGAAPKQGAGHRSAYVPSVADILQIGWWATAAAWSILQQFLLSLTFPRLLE
T1 sequence (P54289 957-1103 partner limits assumed): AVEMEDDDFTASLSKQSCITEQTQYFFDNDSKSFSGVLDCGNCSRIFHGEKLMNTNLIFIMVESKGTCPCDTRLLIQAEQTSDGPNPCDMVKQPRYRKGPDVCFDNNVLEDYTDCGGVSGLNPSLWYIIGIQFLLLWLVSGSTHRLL
T1 sequence (Q02641 whole entry partner): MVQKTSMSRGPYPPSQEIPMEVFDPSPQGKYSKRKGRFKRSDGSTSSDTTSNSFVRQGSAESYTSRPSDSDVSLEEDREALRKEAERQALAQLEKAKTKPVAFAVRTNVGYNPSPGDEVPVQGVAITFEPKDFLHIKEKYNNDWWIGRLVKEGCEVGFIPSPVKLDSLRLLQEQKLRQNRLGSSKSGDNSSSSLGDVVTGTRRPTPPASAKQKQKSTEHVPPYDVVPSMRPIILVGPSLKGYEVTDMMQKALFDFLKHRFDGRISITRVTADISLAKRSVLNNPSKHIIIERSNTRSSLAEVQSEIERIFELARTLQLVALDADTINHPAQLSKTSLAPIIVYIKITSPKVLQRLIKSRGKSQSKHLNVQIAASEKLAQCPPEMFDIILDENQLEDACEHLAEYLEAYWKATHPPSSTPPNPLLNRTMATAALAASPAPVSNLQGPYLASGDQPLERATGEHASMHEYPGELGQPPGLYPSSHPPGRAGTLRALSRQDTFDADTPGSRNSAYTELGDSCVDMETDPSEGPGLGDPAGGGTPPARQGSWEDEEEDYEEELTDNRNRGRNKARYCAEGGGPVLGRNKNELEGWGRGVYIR

Row | Structure (SMILES) | pIC50 [1] | pIC50 [2] | pIC50 [3]
1 | CC(C)c1ccc(CN2CCC3(C=Cc4cccnc43)CC2)cc1 | 4.70 to 5.00 |  | 
2 | O=C(CCC(c1ccc(F)cc1)c1ccc(F)cc1)N1CCC2(CCc3ccccc32)CC1 [Compound 35, 1-[4,4-bis(4-fluorophenyl)butanoyl]-spiro[piperidine-4,1′-indane]] |  | 5.31 | < 4.70
3 | COc1ccc(CN2CCC3(C=Cc4ccccc43)CC2)cc1 [Compound 37, 1-(4-methoxybenzyl)-spiro[piperidine-4,1′-indene]] |  | 6.09 | 5.26
4 | Fc1ccc(C(CCCN2CCC3(CC2)OCc2ccccc23)c2ccc(F)cc2)cc1 [Compound 42, 1,3-Dihydro-1′-[4,4-bis(4-fluorophenyl)butyl]-spiro[isobenzofuran-1,4′-piperidine]] |  | 5.92 | 5.59
5 | O=C1c2ccccc2C2(CCN(CCCC(c3ccc(F)cc3)c3ccc(F)cc3)CC2)N1Cc1ccccc1 [Compound 51, 2-Benzyl-2,3-dihydro-1′-[4,4-bis(4-fluorophenyl)butyl]-spiro[isoindole-1,4′-piperidine]-3-one] |  | 6.26 | 5.19
6 | O=C1Nc2ccccc2C12CCN(CCCC(c1ccc(F)cc1)c1ccc(F)cc1)CC2 [Compound 60, 2,3-Dihydro-1′-[4,4-bis(4-fluorophenyl)butyl]-spiro[indole-3,4′-piperidine]-2-one] |  | 5.98 | 5.42
7 | O=C1OC2(CCN(CCCN(c3ccc(F)cc3)c3ccc(F)cc3)CC2)c2ccccc21 [Compound 68, 1,3-Dihydro-1′-{3-[N,N-bis(4-fluorophenyl)amino]propyl}-spiro[isobenzofuran-1,4′-piperidine]-3-one] |  | 6.64 | < 4.70
